Assay results taken from patent US20150057350A1, “FIBROSIS BIOMARKERS AND METHODS OF USING SAME” (ABBOTT LABORATORIES, priority 2013, published 2015).

Experiments:
Format in all cases: in vivo
development of fibrosis = test: 10-day bed rest study: all 3 fibrosis markers taken together; conditions: prolonged period of physical inactivity, human subject
Description: The following inclusion criteria were verified at screening: male or female ≧60 to ≦79 years of age; body mass index (BMI) ≧20 but ≦35; ambulatory with a Short Performance Physical Battery (SPPB) score of ≧9 (fully functional with no mobility limitations); and compliance with prescribed activity level. Exclusion criteria ruled out subjects who had undergone recent major surgery, had active malignancy (excepting basal or squamous cell skin carcinoma or carcinoma in situ of the uterine cervix); history of Deep Vein Thrombosis (DVT) or other hypercoagulation disorders; refractory anemia; history of diabetes or fasting blood glucose value >126 mg/dL; presence of partial or full artificial limb; kidney disease or serum creatinine >1.4 mg/dL; evidence of cardiovascular disease assessed during resting or exercise EKG; untreated hypothyroidism; liver disease; chronic or acute GI disease; uncontrolled severe diarrhea, nausea or vomiting; were actively pursuing weight loss; were enrolled in other clinical trials; could not refrain from smoking over the bed rest study period; or could not discontinue anticoagulant therapy over bed rest period. […]
(§1) After a diet stabilization of 5 days (ambulatory period), subjects remained in bed continuously for 10 days. […] Subjects were constantly monitored by nursing staff and received a daily physical examination by the study physician. […]

[1] = tested on: Matrix Metalloproteinase-1 (MMP-1); test: 10-day bed rest study in healthy elderly subjects: circulating MMP-1 (RBM Human DiscoveryMAP, serum)
Description: (§2) The following inclusion criteria were verified at screening: male or female ≧60 to ≦79 years of age; body mass index (BMI) ≧20 but ≦35; ambulatory with a Short Performance Physical Battery (SPPB) score of ≧9 (fully functional with no mobility limitations); and compliance with prescribed activity level. Exclusion criteria ruled out subjects who had undergone recent major surgery, had active malignancy (excepting basal or squamous cell skin carcinoma or carcinoma in situ of the uterine cervix); history of Deep Vein Thrombosis (DVT) or other hypercoagulation disorders; refractory anemia; history of diabetes or fasting blood glucose value >126 mg/dL; presence of partial or full artificial limb; kidney disease or serum creatinine >1.4 mg/dL; evidence of cardiovascular disease assessed during resting or exercise EKG; untreated hypothyroidism; liver disease; chronic or acute GI disease; uncontrolled severe diarrhea, nausea or vomiting; were actively pursuing weight loss; were enrolled in other clinical trials; could not refrain from smoking over the bed rest study period; or could not discontinue anticoagulant therapy over bed rest period. Potential subjects were also excluded if they were taking any medications known to affect protein metabolism (e.g., progestational agents, steroids, growth hormone, dronabinol, marijuana, HMB, free amino acid supplements, dietary supplements to aid weight loss).
(§3) The 24 healthy subjects initially involved in the study were randomized into two groups. Subjects in the treatment group received two β-hydroxy-β-methylbutyrate (HMB) sachets containing 1.5 grams of Ca-HMB (TSI, Salt Lake City, Utah), 4 grams of maltodextrin, and 200 milligrams of calcium with additional sweetener and flavoring agents. Subjects in the control group received two control sachets that were identical to the HMB sachets with the exclusion Ca-HMB. This study was a double-blinded study. Neither the investigators nor the subjects were informed of the identity of any of the study products during the clinical portion of the study. Subjects were instructed to consume a sachet twice daily by mixing a sachet into a non-caloric, non-caffeinated, non-carbonated, non-milk-based beverage of their choice. Treatment with HMB or Control was initiated 5 days prior to bed rest and was continued until the end of the rehabilitation period.
(§4) For diet stabilization over the pre-bed rest and bed rest periods, subjects were fed a metabolically controlled diet providing the RDA for protein intake (0.8 g protein/kg body weight per day). Total calorie needs were estimated using the Harris-Benedict equation for resting energy expenditure according to the following equation: For women=[655+(9.56×body weight in kg)+(1.85×height in cm)−(4.68×age in years)]×AF, and, For men=[66+(13.7×body weight in kg)+(5×height in cm)−([…]]×AF, where AF=activity factor of 1.6 for the ambulatory period and 1.35 for the bed rest period. Given the total calorie and protein intakes, the remainder of the diet was manipulated to keep the non-protein calories at about 60% from carbohydrates and 40% from fat. Water was provided ad libitum.
as §1

[2] = tested on: Matrix Metalloproteinase-10 (MMP-10); test: 10-day bed rest study in healthy elderly subjects: circulating MMP-10 (RBM Human DiscoveryMAP, serum)
Description: as §2, §3, §4
(§5) After a diet stabilization of 5 days (ambulatory period), subjects remained in bed continuously for 10 days. While confined to bed rest, subjects were allowed to use the bedside commode for urination or were taken in a wheelchair for toileting. Subjects were given the option of taking a sponge bath or showering in a wheelchair. Prophylactic measures were taken to detect and prevent deep vein thrombosis including a blood d-dimer test followed by an ultrasound examination if d-dimer test was positive, passive range of motion exercise during bed rest, the use of TED hose and SCD over the bed rest period. Subjects were offered medication to help mitigate reflux problems associated with being supine. Subjects were constantly monitored by nursing staff and received a daily physical examination by the study physician. […]

[3] = tested on: Matrix Metalloproteinase-3 (MMP-3); test: 10-day bed rest study in healthy elderly subjects: circulating MMP-3 (RBM Human DiscoveryMAP, serum)
Description: as §2, §3, §4, §5

[4] = after 10 days of bed rest, 10 HMB treated subjects
[5] = post- minus pre-bed rest, 10 days, n = 10, ANCOVA vs control p < 0.0001
[6] = serum, Day 1 of bed rest, after 5 days of Ca-HMB 1.5 g sachet twice daily, n = 10
[7] = serum, end of 10 days bed rest, Ca-HMB 1.5 g sachet twice daily, n = 10

## CC(C)(O)CC(=O)O [HMB, β-hydroxy-β-methylbutyric acid]
Development of fibrosis
  effect against development of fibrosis, all 3 markers taken together: protective effect
[1]; [4]
  average increase in circulating levels of MMP-1: 2.17 ng/mL
[1]; [5]
  MMP-1 Change: 2.17 ± 1.06 ng/mL
[1]; prolonged bed rest, vs control
  effect on the increase in blood levels of MMP-1 that occurs in untreated control subjects: enhances the increase
[1]; [6]
  MMP-1 Pre-bed rest Mean: 11.29 ng/mL
[1]; [7]
  MMP-1 Post-bed rest Mean: 13.46 ng/mL
[2]; [4]
  average decrease in blood levels of MMP-10: 0.09 ng/mL
  decrease in blood levels of MMP-10: 12%
[2]; [5]
  MMP-10 Change: -0.09 ± 0.04 ng/mL
[2]; prolonged bed rest, vs control
  effect on the decrease in blood levels of MMP-10 that occurs in untreated control subjects: reduces or attenuates the decrease
[2]; [6]
  MMP-10 Pre-bed rest Mean: 0.60 ng/mL
[2]; [7]
  MMP-10 Post-bed rest Mean: 0.51 ng/mL
[3]; [4]
  average decrease in blood levels of MMP-3: 2.71 ng/mL
  change (decrease) in blood levels of MMP-3: 25%
[3]; post- minus pre-bed rest, 10 days, n = 10, ANCOVA vs control p = 0.0007
  MMP-3 Change: -2.71 ± 0.78 ng/mL
[3]; prolonged bed rest, vs control
  effect on the decrease in blood levels of MMP-3 that occurs in untreated control subjects: reduces or attenuates the decrease
[3]; [6]
  MMP-3 Pre-bed rest Mean: 10.90 ng/mL
[3]; [7]
  MMP-3 Post-bed rest Mean: 8.19 ng/mL
